In paper PMC9329436, “Optimization of the 4-anilinoquin(az)oline scaffold as epidermal growth factor receptor (EGFR) inhibitors for chordoma utilizing a toxicology profiling assay platform” (Scientific Reports, 2022):

Tested on: HL60 cells
Assay: AsedaSciences SYSTEMETRIC Cell Health Screen (flow cytometry toxicity profiling)
Settings: HL60, 4 h, 5 nM–100 µM; for CC: Cell Cycle score / CM: Cell morphology score / CMI: Cell membrane integrity score / MMP: Mitochondrial membrane depolarization score / ROS: Reactive superoxide species score / GSH: Glutathione score / NMI1: Nuclear membrane integrity 1 score / NMI2: Nuclear membrane integrity 2 score: probability 0–1, n = 2; for CHI: Cell Health Index: probability (0–1) of high-risk class, n = 2
From the text: To prioritize further optimization, in addition to cellular potency, we utilized the AsedaSciences® […]® Cell Health Screen. This live cell flow cytometry (FC) screen was developed to assess human safety risk for candidate pharmaceutical small molecules at the early hit-to-lead stage of development. The screen works by estimating the risk using a supervised machine learning (ML) classifier to assess a multiparametric cellular stress phenotype, produced by the test compound, relative to a training set of known compounds (Table S1). This screen has been designed for early pipeline risk estimation regardless of pharmaceutical class/disease type, so it uses HL60 as the reporter cell line.
The ML classifier was trained with 300 historically known compounds (on market or withdrawn drugs, research compounds, etc.), which were divided into two outcome classes based upon literature, clinical trials, and market histories where applicable. This external curation informed an outcome of “high-risk” or “low-risk”. All 300 compounds were also processed through the automated FC screen, populating each of the two classes with frequency distributions of empirical cell-based phenotypes.
To estimate human safety risk for an unknown compound, the ML classifier assesses the similarity of the test compound’s cell-based phenotype to the distributions of phenotypes in the two outcome classes. […] Phenotypes are derived from twelve FC detection parameters, including light scatter and a series of fluorescent physiological reporter dyes, that track cell stress-related endpoints.
To produce the Cell Health Index, the ML classifier uses all twelve FC parameters simultaneously in a multidimensional logistic regression model, so the CHI contains the most predictive power. In addition to the Cell Health Index, Table 4 also reports probability scores for eight cell stress-related endpoints. These scores are produced individually by passing information to the ML classifier relating to parameters that inform that endpoint. For example, to produce the cell morphology (CM) score, the ML classifier only uses the FC detection parameters for forward scatter (informing change in cell diameter) and side scatter (informing change in optical granularity of the cell) to inform the model. Together, these eight endpoints provide a “biological fingerprint”, allowing assessment of the degree to which SAR series members behave differently across endpoints.
In a 384-well platform, HL60 cells were exposed to a 10-step, 3 × dilution series of each test compound (5 nM–100 µM) for 4 h at 37 °C with 5% CO2. Each dilution series was screened in duplicate, occupying a total of 20 wells, allowing 16 test compounds to be assayed per plate. Each row contained one positive and one negative control well, for a total of 16 replicate positive/negative control pairs on each assay plate. Compound formatting, cell deposition, and dye application were performed robotically so that final assay conditions comprised 100,000 cells in a 40 µL volume. After the 4 h compound exposure, cells were immediately stained with a panel of fluorescent dyes that report physiological signatures of both mitochondrial dysfunction and gross cell stress. Fluorescence and forward/side-scatter data were collected using automated FC with no gating. FC data are processed by an automated algorithm for producing quality control measures and ML classification of compound phenotypes. • 2. HL60 cell culture production
HL60 cells were produced as suspension cultures in glass 850 cm^2 roller bottles with vented caps, at 1 RPM, 5% CO2, and 37 °C. […] Culture density was maintained at or below 1 × 10^6 cells/mL.

## CCOC(=O)N1CCC(=C2c3ccc(Cl)cc3CCc3cccnc32)CC1 [Loratadine, reference compound]
  CC: Cell Cycle score: 0.84
  CM: Cell morphology score: 0.36
  CMI: Cell membrane integrity score: 0.70
  MMP: Mitochondrial membrane depolarization score: 0.65
  ROS: Reactive superoxide species score: 0.85

## O=C1CC2(CCCC2)CC(=O)N1CCCCN1CCN(c2ncccn2)CC1 [Buspirone, reference compound]
  CC: Cell Cycle score: 0.11
  CM: Cell morphology score: 0.060
  CMI: Cell membrane integrity score: 0.040
  GSH: Glutathione score: 0.080
  MMP: Mitochondrial membrane depolarization score: 0.020
  NMI1: Nuclear membrane integrity 1 score: 0.070
  NMI2: Nuclear membrane integrity 2 score: 0.040
  ROS: Reactive superoxide species score: 0.05
  CHI: Cell Health Index: 0.22

## Cc1ccc(-c2cc(C(F)(F)F)nn2-c2ccc(S(N)(=O)=O)cc2)cc1 [Celecoxib, reference compound]
  CC: Cell Cycle score: 0.61
  CM: Cell morphology score: 0.56
  CMI: Cell membrane integrity score: 0.94
  GSH: Glutathione score: 0.36
  MMP: Mitochondrial membrane depolarization score: 0.51
  NMI1: Nuclear membrane integrity 1 score: 0.53
  NMI2: Nuclear membrane integrity 2 score: 0.51
  ROS: Reactive superoxide species score: 0.96
  CHI: Cell Health Index: 0.54

## C=C(C)[C@H]1Cc2c(ccc3c2O[C@@H]2COc4cc(OC)c(OC)cc4[C@@H]2C3=O)O1 [Rotenone, reference compound]
  CC: Cell Cycle score: 0.70
  CM: Cell morphology score: 0.93
  CMI: Cell membrane integrity score: 0.83
  GSH: Glutathione score: 0.79
  MMP: Mitochondrial membrane depolarization score: 0.99
  NMI1: Nuclear membrane integrity 1 score: 0.54
  NMI2: Nuclear membrane integrity 2 score: 0.76
  ROS: Reactive superoxide species score: 0.94

## Cc1ccnc2c1NC(=O)c1cccnc1N2C1CC1 [Nevirapine, reference compound]
  CC: Cell Cycle score: 0.070
  CM: Cell morphology score: 0.020
  CMI: Cell membrane integrity score: 0.050
  GSH: Glutathione score: 0.030
  MMP: Mitochondrial membrane depolarization score: 0.010
  NMI1: Nuclear membrane integrity 1 score: 0.020
  NMI2: Nuclear membrane integrity 2 score: 0.040
  ROS: Reactive superoxide species score: 0.28
  CHI: Cell Health Index: 0.18

## COc1ccc2cc3[n+](cc2c1OC)CCc1cc2c(cc1-3)OCO2 [Berberine, reference compound]
  CC: Cell Cycle score: 0.99
  CM: Cell morphology score: 0.99
  CMI: Cell membrane integrity score: 0.050
  GSH: Glutathione score: 0.93
  MMP: Mitochondrial membrane depolarization score: 1.00
  NMI1: Nuclear membrane integrity 1 score: 0.99
  NMI2: Nuclear membrane integrity 2 score: 0.97
  ROS: Reactive superoxide species score: 1.00
  CHI: Cell Health Index: 0.82

## [H]/N=C(/N)N/C(=N/[H])NCCc1ccccc1 [Phenformin, reference compound]
  CC: Cell Cycle score: 0.28
  CM: Cell morphology score: 0.74
  CMI: Cell membrane integrity score: 0.27
  GSH: Glutathione score: 0.17
  MMP: Mitochondrial membrane depolarization score: 0.37
  NMI1: Nuclear membrane integrity 1 score: 0.82
  NMI2: Nuclear membrane integrity 2 score: 0.080
  ROS: Reactive superoxide species score: 0.77
  CHI: Cell Health Index: 0.41

## NC(=O)c1ncn([C@@H]2O[C@H](CO)[C@@H](O)[C@H]2O)n1 [Ribavirin, reference compound]
  CC: Cell Cycle score: 0.040
  CM: Cell morphology score: 0.010
  CMI: Cell membrane integrity score: 0.070
  GSH: Glutathione score: 0.060
  MMP: Mitochondrial membrane depolarization score: 0.000
  NMI1: Nuclear membrane integrity 1 score: 0.16
  NMI2: Nuclear membrane integrity 2 score: 0.030
  ROS: Reactive superoxide species score: 0.23
  CHI: Cell Health Index: 0.16

## CCCCc1oc2ccccc2c1C(=O)c1cc(I)c(OCCN(CC)CC)c(I)c1 [Amiodarone, reference compound]
  CC: Cell Cycle score: 0.96
  CM: Cell morphology score: 0.97
  CMI: Cell membrane integrity score: 0.80
  MMP: Mitochondrial membrane depolarization score: 0.87
  ROS: Reactive superoxide species score: 0.19

## CC1(C)NC(=O)N(c2ccc([N+](=O)[O-])c(C(F)(F)F)c2)C1=O [Nilutamide, reference compound]
  CC: Cell Cycle score: 0.68
  CM: Cell morphology score: 0.040
  CMI: Cell membrane integrity score: 0.060
  GSH: Glutathione score: 0.040
  MMP: Mitochondrial membrane depolarization score: 0.42
  NMI1: Nuclear membrane integrity 1 score: 0.21
  NMI2: Nuclear membrane integrity 2 score: 0.52
  ROS: Reactive superoxide species score: 0.090
  CHI: Cell Health Index: 0.34

## CN(C)CCOC(c1ccccc1)c1ccccc1 [Diphenhydramine, reference compound]
  CC: Cell Cycle score: 0.030
  CM: Cell morphology score: 0.010
  CMI: Cell membrane integrity score: 0.030
  MMP: Mitochondrial membrane depolarization score: 0.030
  ROS: Reactive superoxide species score: 0.040

## CC/C(=C(\c1ccccc1)c1ccc(OCCN(C)C)cc1)c1ccccc1 [Tamoxifen, reference compound]
  CC: Cell Cycle score: 0.98
  CM: Cell morphology score: 1.00
  CMI: Cell membrane integrity score: 1.00
  GSH: Glutathione score: 1.00
  MMP: Mitochondrial membrane depolarization score: 1.00
  NMI1: Nuclear membrane integrity 1 score: 1.00
  NMI2: Nuclear membrane integrity 2 score: 0.99
  ROS: Reactive superoxide species score: 1.00

## Cc1ccc(=O)n(-c2ccccc2)c1 [Pirfenidone, reference compound]
  CC: Cell Cycle score: 0.060
  CM: Cell morphology score: 0.00
  CMI: Cell membrane integrity score: 0.090
  GSH: Glutathione score: 0.040
  MMP: Mitochondrial membrane depolarization score: 0.010
  NMI1: Nuclear membrane integrity 1 score: 0.040
  NMI2: Nuclear membrane integrity 2 score: 0.030
  ROS: Reactive superoxide species score: 0.020
  CHI: Cell Health Index: 0.17

## O=C(O)c1cc(/N=N/c2ccc(S(=O)(=O)Nc3ccccn3)cc2)ccc1O [Sulfasalazine, reference compound]
  CC: Cell Cycle score: 0.10
  CM: Cell morphology score: 0.010
  CMI: Cell membrane integrity score: 0.060
  GSH: Glutathione score: 0.030
  MMP: Mitochondrial membrane depolarization score: 0.31
  NMI1: Nuclear membrane integrity 1 score: 0.14
  NMI2: Nuclear membrane integrity 2 score: 0.63
  ROS: Reactive superoxide species score: 0.090

## Cc1cn([C@@H]2C[C@@H](O)[C@H](CO)O2)c(=O)[nH]c1=O [Telbivudine, reference compound]
  CC: Cell Cycle score: 0.020
  CM: Cell morphology score: 0.010
  CMI: Cell membrane integrity score: 0.040
  GSH: Glutathione score: 0.070
  MMP: Mitochondrial membrane depolarization score: 0.010
  NMI1: Nuclear membrane integrity 1 score: 0.11
  NMI2: Nuclear membrane integrity 2 score: 0.050
  ROS: Reactive superoxide species score: 0.030
